The record followed here is patent US10953027B2, “Active agents and methods of their use for the treatment of metabolic disorders and nonalcoholic fatty liver disease” (Flagship Pioneering Innovations V, Inc., priority 2018, dated 2021).

One data set has as its system Male DIO mice. As to the kind of experiment: In vivo evaluation for glucose disposal and lipidemia in DIO mice (Example 11). As to conditions: for change in body weight from baseline: 30 days; for Cholesterol / HDL / LDL / NEFA / Triglycerides: terminal (fed) serum; for Fasting blood glucose levels (time 0 from OGTT): 28 days, 16 hour fast; for glucose AUC (0-120 min): OGTT day 28, glucose 2.0 g/kg PO. As for the experimental part:
The DIO mice were prepared by feeding male C57BL/6 mice a high fat diet (HFD, Research Diets D12492) from 6-14 weeks of age. DIO mice were housed individually and maintained on the HFD through the duration of study. A twelve-hour light cycle was maintained with room temperature maintained at 22-25° C. All of the mice were acclimated to the facility for 5 days prior to starting the study.
Following 5 days of facility acclimation, DIO mice were randomized into 8 groups of 10 based on body weight and blood glucose for assignment to treatment, as shown in Table 9:
All treatments were administered admixed in HFD (Research Diets, New Brunswick N.J.) and were provided ad libitum for 30 days. Drinking water for group 7 was supplemented with 1, 3 Butanediol at 3% concentration.
Body weight was recorded at baseline and twice weekly thereafter. Feed and water intakes were recorded each Monday, Wednesday, and Friday.
Blood samples (<3 μL) were obtained one hour post dose by tail clip at baseline and weekly thereafter for measurement of fed blood glucose by StatStrip. Additional anti-coagulated blood samples (100 μl, EDTA di-potassium salt) were obtained by tail clip one hour post-dose at baseline, day 14 and day 30. Anti-coagulated samples were quick frozen and stored on dry ice.
Animals were subjected to a 16 hour fast for performance of an oral glucose tolerance test (OGTT) on day 28. Blood samples were obtained via tail clip just prior to (8 am) and 15, 30, 60, 90, and 120 minutes post-glucose load (2.0 g/kg, PO) for assay of whole blood glucose (StatStrip). Feed was returned following last sample.
Animals were terminated on day 30-31 using CO2 inhalation and induction of pneumothorax. Terminal blood samples were obtained by cardiac puncture. Whole blood was processed to serum and analyzed for serum cholesterol, triglycerides, high density lipoprotein (HDL), low density lipoprotein (LDL) and non-esterified fatty acids (NEFA) using AU480 clinical analyzer.
Organ weights (liver, spleen, subcutaneous fat, inguinal fat, abdominal fat, and epididymal fat) were recorded. Sections of each fat were frozen or fixed in 4% paraformaldehyde/PBS, pH 6.9; Fat samples were placed on dry ice. Fixed liver samples (4% paraformaldehyde) were sent to Premier Laboratories for H&E staining and scoring for steatosis, inflammation and fibrosis. Spleen samples were prepared in ice cold 5% bovine serum albumin (BSA) in PBS or 4% paraformaldehyde. Sections of brain, heart, lung, and small and large intestine were fixed in 10% formalin.
All data are represented as group mean±SEM. Data were analyzed using JMP (SAS software). All normalizations were calculated using terminal body weight.
Baseline differences among groups were identified using Tukey-Kramer Hsd<0.05. Treatment effects compared to control were determined using Oneway ANOVA (*, p<0.05) followed by Dunnett's test where appropriate.

The test system of a further data set is Male FATZO mice. As to the kind of experiment: In vivo FATZO DM2/obesity study (Example 5). As to conditions: in HFD ad libitum, after 28 days; blood glucose 0-120 minutes. On the procedure:
Male FATZO mice (Crown Bio) of 11-12 weeks old were selected for Diabetes Mellitus Type 2 (DM2) and obesity study. Mice were randomized into 9 groups based on body weight and blood glucose level as shown below. Compounds were administered in high fat diet (HFD: D12492) and provided to mice ad libitum until study termination. Body weight was recorded at the baseline and then twice weekly thereafter. Blood glucose level was measured at 0, 15, 30, 60, 90, and 120 minutes at the end of the study.

A further data set has as its system HFD-fed C57BL/6 mice. Briefly: In vivo evaluation in HFD-fed C57BL/6 mice (Example 3). Conditions: 6% in HFD ad libitum, 8 week. On the procedure: Animals were allowed free access to food and drinking water for the entire 8 week study. Animals were weighed on a weekly basis, and food and drinking water consumption monitored. Plasma and stool samples were collected at the beginning of the study, mid-study, and day of termination. These samples were used for the measurement of the disease makers.
Disease markers were also assessed in liver tissues collected from mice as follows. Liver tissues from mice were collected, fixed by immersion in 10% neutral buffered formalin. Fixed tissue specimens were sent to a histological processing laboratory (Premier Laboratory, Longmont, Colo.), where they were paraffin embedded, sectioned (approximately 4 μm), mounted, and stained with hematoxylin and eosin (H&E) using standard methods.
Liver sections (2) for each animal were scored from a scan of the H&E-stained slide for inflammation, steatosis (macrovesicular vacuolation) and ballooning ([…] vacuolation) using a modified grading scale based on human biopsy scoring (Brunt et al., Am J Clin Pathol, 128:837-47, 2007). Inflammation was scored 0=no inflammation, 1=minimal (1-3 foci of scattered (lobar) inflammatory cells), 2=mild (3 to 10 scattered foci of inflammatory cells with or without portal/periportal inflammation), 3=moderate (>10 scattered (lobar) foci of inflammatory cells and/or marked portal/periportal inflammation. Steatosis was graded (as in Brunt et al., Am J Clin Pathol, 128:837-47, 2007) as follows: 0=no steatosis, grade 1: ≤33%; grade 2: >33%, <66%; 3: ≥66%. Ballooning was scored as follows: 0=no ballooning, 1=rare/few, and 2=many hepatocytes with microvesicular vacuolation.

Data set [1] in a line: Assay 3. Fecal Incubation Stability. The class given is in vitro ADME. As to conditions: 1 or 10 μM, human fecal slurry, anaerobic.

Regarding `CC(=O)Oc1cc(OC(C)=O)c2c(c1)O[C@H](c1cc(OC(C)=O)c(OC(C)=O)c(OC(C)=O)c1)[C@H](OC(=O)c1cc(OC(C)=O)c(OC(C)=O)c(OC(C)=O)c1)C2` [Compound 4, [(2R,3R)-5,7-diacetoxy-2-(3,4,5-triacetoxyphenyl)chroman-3-yl] 3,4,5-triacetoxybenzoate], in the data set on Male DIO mice (0.6% in HFD), the “Abdominal fat (% BW)” value is 2.1 ± 0.2 % BW, the “Blood glucose (fed) change compared to baseline” value (from here on “Blood glucose (fed) change”) is recorded as −15.6±3.1%, the “Epididymal fat (% BW)” value came out at 4.7 ± 0.2 % BW and the “Inguinal fat (% BW)” value is 0.99 ± 0.17 % BW. In addition, in the data set on Male DIO mice (0.6% in HFD), the “Subcutaneous fat (% BW)” value is recorded as 4.9 ± 0.4 % BW, the “change in body weight from baseline” value was 13.5±2.0%, the Cholesterol was determined as 193.9 ± 11.0 mg/dL and the HDL was 94.4 ± 4.0 mg/dL. Also, in the data set on Male DIO mice (0.6% in HFD), the LDL is recorded as 9.2 ± 0.9 mg/dL, the NEFA came to 1.2 ± 0.04 mEq/L and the Triglycerides was 97.7 ± 10.1 mg/dL. Besides, in the data set on Male DIO mice (2% in HFD), the “Abdominal fat (% BW)” value came to 2.4 ± 0.1 % BW, the “Blood glucose (fed) change” value is −9.0±3.9%, the “Epididymal fat (% BW)” value is on record as 4.5 ± 0.2 % BW and the “Inguinal fat (% BW)” value was found to be 0.93 ± 0.08 % BW. Moreover, in the data set on Male DIO mice (2% in HFD), the “Subcutaneous fat (% BW)” value worked out at 5.5 ± 0.5 % BW, the “change in body weight from baseline” value is listed as 16.4±1.1%, the Cholesterol was found to be 208.2 ± 7.2 mg/dL and the HDL turned out to be 99.0 ± 3.6 mg/dL. In the data set on Male DIO mice (2% in HFD), this compound yielded an LDL of 10.7 ± 0.9 mg/dL, an NEFA of 1.2 ± 0.06 mEq/L and a Triglycerides of 91.1 ± 8.4 mg/dL. Further, in the data set on Male DIO mice (6% in HFD), the “Abdominal fat (% BW)” value stood at 2.2 ± 0.1 % BW, the “Blood glucose (fed) change” value is given as −4.3±3.0%, the “Epididymal fat (% BW)” value was 4.7 ± 0.3 % BW and the “Inguinal fat (% BW)” value came to 0.95 ± 0.08 % BW. In the data set with Male DIO mice (6% in HFD), the “Subcutaneous fat (% BW)” value is recorded as 5.0 ± 0.6 % BW, the “change in body weight from baseline” value came out at 15.7±1.0%, the Cholesterol was found to be 200.4 ± 14.2 mg/dL and the HDL is 91.5 ± 5.1 mg/dL. In the data set with Male DIO mice (6% in HFD), this compound yielded an LDL of 12.3 ± 0.9 mg/dL, an NEFA of 1.1 ± 0.04 mEq/L and a Triglycerides of 89.9 ± 5.7 mg/dL. Also, in the data set with Male FATZO mice, the “OGTT (AUC)” value was 59443. Besides, in the data set with HFD-fed C57BL/6 mice, the “ballooning score (FIG. 4)” value is on record as “lower ballooning score than the animals fed a high fat diet only”, the “glucose tolerance (FIG. 2)” value is given as “exceeded that of animals in the HFD+rosiglitazone”, the “histological analysis of the livers: steatosis (FIGS. 5A-5G)” value is recorded as “significantly lower steatosis” and the “percentage change in weight (FIG. 1)” value is “underwent weight loss”. In addition, the “steatosis score (FIG. 3)” value in the data set on HFD-fed C57BL/6 mice was “lower steatosis score than the animals fed high fat diet only”. Moreover, the “Assay 3 (% Remaining at 24 h)” value in data set [1] is “A (A: <25% of the tested compound remaining)”.

As to `CC(=O)O[C@H]1OC[C@H](OC(C)=O)[C@H](OC(C)=O)[C@H]1OC(C)=O` [Compound 53, (2R,3R,4S,5S)-tetrahydro-2H-pyran-2,3,4,5-tetrayl Tetraacetate], in the data set on Male DIO mice (5% in HFD), the “Abdominal fat (% BW)” value was “*1.9 ± 0.2 % BW”, the “Blood glucose (fed) change” value is −12.5±2.2%, the “Epididymal fat (% BW)” value is listed as 4.1 ± 0.4 % BW and the “Inguinal fat (% BW)” value worked out at 0.84 ± 0.11 % BW. In the data set on Male DIO mice (5% in HFD), the “Subcutaneous fat (% BW)” value is 4.0 ± 0.6 % BW, the “Fasting blood glucose levels (time 0 from OGTT)” value is 90.8 ± 5.7 mg/dL, the “change in body weight from baseline” value is −1.8±3.2% and the “glucose AUC (0-120 min)” value was 30151.5 ± 1680 mg/dL/min. Besides, in the data set on Male DIO mice (5% in HFD), the Cholesterol is recorded as 163.3 ± 10.3 mg/dL, the HDL was 88.9 ± 2.7 mg/dL, the LDL entry is listed as “*6.5 ± 0.7 mg/dL” and the NEFA entry is given as “*0.98 ± 0.05 mEq/L”. The same compound had a Triglycerides in the data set with Male DIO mice (5% in HFD) of 84.8 ± 5.5 mg/dL. The “Assay 3 (% Remaining at 24 h)” value in data set [1] is “A (A: <25% of the tested compound remaining)”.

For `CC(=O)Oc1cc(OC(C)=O)c2c(=O)c(OC(C)=O)c(-c3ccc(OC(C)=O)c(OC(C)=O)c3)oc2c1` [Compound 14, [2-acetoxy-4-(3,5,7-triacetoxy-4-oxo-chromen-2-yl)phenyl] acetate], in the data set on Male DIO mice (6% in HFD), the “Abdominal fat (% BW)” value is “*0.98 ± 0.2 % BW”, the “Blood glucose (fed) change” value is listed as −23.1±4.9%, the “Epididymal fat (% BW)” value is listed as “*2.6 ± 0.3 % BW” and the “Inguinal fat (% BW)” value is recorded as “*0.40 ± 0.06 % BW”. Moreover, in the data set on Male DIO mice (6% in HFD), the “Subcutaneous fat (% BW)” value is “*2.2 ± 0.4 % BW”, the “Fasting blood glucose levels (time 0 from OGTT)” value worked out at 63.1 ± 1.9 mg/dL, the “change in body weight from baseline” value is recorded as −11.9±1.3% and the “glucose AUC (0-120 min)” value was determined as 25720.5 ± 895.5 mg/dL/min. Further, in the data set with Male DIO mice (6% in HFD), the Cholesterol entry is “*121.5 ± 9.4 mg/dL”, the HDL came out at 79.4 ± 4.0 mg/dL, the LDL entry is on record as “*4.9 ± 0.4 mg/dL” and the NEFA result is given as “*0.69 ± 0.03 mEq/L”. In addition, the Triglycerides result in the data set on Male DIO mice (6% in HFD) was “*64.0 ± 2.8 mg/dL”. For the same compound, the “OGTT (AUC)” value in the data set on Male FATZO mice stood at 65323.
